Data as given in paper PMC2742692 (Proteins, 2009).

Target: CalO2 (Micromonospora echinospora, UniProt Q8KND6)
Assay: CalO2 ligand binding by UV-vis difference spectra
Set-up: species or system M. echinospora

| SMILES | Kd |
| --- | --- |
| CC(=O)NCCSC(=O)c1c(C)cc(O)cc1O [compound 11] | 170 ± 30 µM |
| CC(=O)NCCSC(=O)c1cccc(I)c1 [compound 13] | 120 µM |
| CC(=O)NCCSC(=O)c1ccccc1O [compound 14] | 405 ± 100 µM |
